Patent publication US9657002B2, “Oxindole derivatives carrying an oxetane substituent and use thereof for treating vassopressin-related diseases” (AbbVie Deutschland GmbH & Co. KG, priority 2013, dated 2017)
Read-outs that look alike come from different tables or passages of the source.

How the values were obtained:
[1] = target: human vasopressin V1a receptor (Homo sapiens, UniProt P37288); test: Vasopressin V1a receptor binding assay; settings: selectivity quotient, human V1a vs human V1b
[2] = target: T1, human vasopressin V1b receptor (Homo sapiens, UniProt P47901); test: biochemical
T1 sequence (P47901 1-424): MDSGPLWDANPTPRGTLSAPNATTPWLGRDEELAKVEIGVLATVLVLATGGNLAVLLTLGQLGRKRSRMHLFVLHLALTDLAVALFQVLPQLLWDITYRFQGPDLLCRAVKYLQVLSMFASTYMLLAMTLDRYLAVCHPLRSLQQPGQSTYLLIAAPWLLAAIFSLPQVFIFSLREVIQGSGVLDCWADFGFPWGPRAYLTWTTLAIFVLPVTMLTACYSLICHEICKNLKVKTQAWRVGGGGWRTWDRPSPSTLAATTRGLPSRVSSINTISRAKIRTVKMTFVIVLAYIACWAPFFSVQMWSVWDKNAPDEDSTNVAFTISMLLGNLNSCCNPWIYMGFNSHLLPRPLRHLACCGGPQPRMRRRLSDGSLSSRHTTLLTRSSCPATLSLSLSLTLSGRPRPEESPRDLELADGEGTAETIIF

[3] = target: T1, human vasopressin V1b receptor; settings: read-out: Ki(h-V1b)*, CHO-K1 membranes, 3H-AVP displacement

human vasopressin V1a receptor, sequence (P37288 whole entry): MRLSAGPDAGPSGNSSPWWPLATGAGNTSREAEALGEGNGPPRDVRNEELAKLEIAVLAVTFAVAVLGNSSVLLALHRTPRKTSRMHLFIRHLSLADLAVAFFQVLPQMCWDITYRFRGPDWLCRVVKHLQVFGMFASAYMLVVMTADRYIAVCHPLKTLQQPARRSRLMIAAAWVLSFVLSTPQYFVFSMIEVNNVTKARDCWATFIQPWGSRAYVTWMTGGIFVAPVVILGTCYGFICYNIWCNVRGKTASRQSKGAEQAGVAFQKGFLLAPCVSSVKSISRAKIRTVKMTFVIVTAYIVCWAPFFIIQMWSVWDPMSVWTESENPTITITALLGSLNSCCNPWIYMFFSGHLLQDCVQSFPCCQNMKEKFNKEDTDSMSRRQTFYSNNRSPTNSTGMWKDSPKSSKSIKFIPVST

Ki(h-V1a)/Ki(h-V1b) [1] | Ki [2] | SMILES | Ki [3]
+++ (>75) | 10 to 100 nM | COc1ccc(S(=O)(=O)N2C(=O)[C@@](NC(=O)N3CCC(N4CCN(C5COC5)CC4)CC3)(c3cccnc3OC)c3cc(C#N)ccc32)c(OC)c1 [Example 31, N-[(3S)-5-cyano-1-(2,4-dimethoxyphenyl)sulfonyl-3-(2-methoxy-3-pyridyl)-2-oxo-indolin-3-yl]-4-[4-(oxetan-3-yl)piperazin-1-yl]piperidine-1-carboxamide] | –
+++ (>75) | 10 to 100 nM | CCOc1ccc(OC)cc1[C@]1(NC(=O)N2CCN(C3CCN(C4COC4)CC3)CC2)C(=O)N(S(=O)(=O)c2ccc(OC)cn2)c2ccc(C#N)cc21 [Example 32, N-[(3S)-5-cyano-3-(2-ethoxy-5-methoxy-phenyl)-1-[(5-methoxy-2-pyridyl)sulfonyl]-2-oxo-indolin-3-yl]-4-[1-(oxetan-3-yl)-4-piperidyl]piperazine-1-carboxamide] | –
+++ (>75) | 1 to 10 nM | CCOc1ccc(OC)cc1[C@]1(NC(=O)N2CCN(C3CCN(C4COC4)CC3)CC2)C(=O)N(S(=O)(=O)c2ccc(OC)cc2OC)c2ccc(C#N)cc21 [Example 33, N-[(3S)-5-cyano-1-(2,4-dimethoxyphenyl)sulfonyl-3-(2-ethoxy-5-methoxy-phenyl)-2-oxo-indolin-3-yl]-4-[1-(oxetan-3-yl)-4-piperidyl]piperazine-1-carboxamide] | –
++ (25-75) | 10 to 100 nM | COc1ccc(S(=O)(=O)N2C(=O)[C@@](NC(=O)N3CCN(C4CCN(C5COC5)CC4)CC3)(c3cccnc3OC)c3cc(C#N)ccc32)cc1 [Example 34, N-[(3S)-5-cyano-1-(4-methoxyphenyl)sulfonyl-3-(2-methoxy-3-pyridyl)-2-oxo-indolin-3-yl]-4-[1-(oxetan-3-yl)-4-piperidyl]piperazine-1-carboxamide] | –
+++ (>75) | 1 to 10 nM | CCOc1ccc(OC)cc1[C@]1(NC(=O)N2CCN(C3CCN(C4COC4)CC3)CC2)C(=O)N(S(=O)(=O)c2ccc(F)cc2OC)c2ccc(C#N)cc21 [Example 35, N-[(3S)-5-cyano-3-(2-ethoxy-5-methoxy-phenyl)-1-(4-fluoro-2-methoxy-phenyl)sulfonyl-2-oxo-indolin-3-yl]-4-[1-(oxetan-3-yl)-4-piperidyl]piperazine-1-carboxamide] | –
+++ (>75) | 1 to 10 nM | COc1ccc(S(=O)(=O)N2C(=O)[C@@](NC(=O)N3CCC(C4CCN(C5COC5)CC4)CC3)(c3cccnc3OC)c3cc(C#N)ccc32)cc1 [Example 36, N-[(3S)-5-cyano-1-(4-methoxyphenyl)sulfonyl-3-(2-methoxy-3-pyridyl)-2-oxo-indolin-3-yl]-4-[1-(oxetan-3-yl)-4-piperidyl]piperidine-1-carboxamide] | –
+++ (>75) | < 1 nM | COc1cc(F)ccc1S(=O)(=O)N1C(=O)[C@@](NC(=O)N2CCC(C3CCN(C4COC4)CC3)CC2)(c2cccnc2OC)c2cc(C#N)ccc21 [Example 37, N-[(3S)-5-cyano-1-(4-fluoro-2-methoxy-phenyl)sulfonyl-3-(2-methoxy-3-pyridyl)-2-oxo-indolin-3-yl]-4-[1-(oxetan-3-yl)-4-piperidyl]piperidine-1-carboxamide] | –
+++ (>75) | 10 to 100 nM | CCOc1ncccc1[C@]1(NC(=O)N2CC3CC2CN3C2CCN(C3COC3)CC2)C(=O)N(S(=O)(=O)c2ccc(OC)cc2OC)c2ccc(C#N)cc21 (stereo partly drawn) [Example 38, N-[(3S)-5-cyano-1-(2,4-dimethoxyphenyl)sulfonyl-3-(2-ethoxy-3-pyridyl)-2-oxo-indolin-3-yl]-5-[1-(oxetan-3-yl)-4-piperidyl]-2,5-diazabicyclo[2.2.1]heptane-2-carboxamide] | –
+ (10-<25) | 1 to 10 nM | COc1ncccc1[C@]1(NC(=O)N2CCC(C3CCN(C4COC4)CC3)CC2)C(=O)N(S(=O)(=O)c2ccc(F)cc2)c2ccc(C#N)cc21 [Example 40, N-[(3S)-5-cyano-1-(4-fluorophenyl)sulfonyl-3-(2-methoxy-3-pyridyl)-2-oxo-indolin-3-yl]-4-[1-(oxetan-3-yl)-4-piperidyl]piperidine-1-carboxamide] | –
+ (10-<25) | 10 to 100 nM | COc1ncccc1[C@]1(NC(=O)N2CCN(C3CCN(C4COC4)CC3)CC2)C(=O)N(S(=O)(=O)c2ccc(C#N)cc2)c2ccc(C#N)cc21 [Example 43, N-[(3S)-5-cyano-1-(4-cyanophenyl)sulfonyl-3-(2-methoxy-3-pyridyl)-2-oxo-indolin-3-yl]-4-[1-(oxetan-3-yl)-4-piperidyl]piperazine-1-carboxamide] | –
+++ (>75) | 1 to 10 nM | COc1ccc(S(=O)(=O)N2C(=O)[C@@](NC(=O)N3CCN(C4CCN(C5COC5)CC4)CC3)(c3cccnc3OC(C)C)c3cc(C#N)ccc32)c(OC)c1 [Example 44, N-[(3S)-5-cyano-1-(2,4-dimethoxyphenyl)sulfonyl-3-(2-isopropoxy-3-pyridyl)-2-oxo-indolin-3-yl]-4-[1-(oxetan-3-yl)-4-piperidyl]piperazine-1-carboxamide] | –
+++ (>75) | 10 to 100 nM | COc1cc(C)ccc1S(=O)(=O)N1C(=O)[C@@](NC(=O)N2CCN(C3CCN(C4COC4)CC3)CC2)(c2cccnc2OC)c2cc(C#N)ccc21 [Example 46, N-[(3S)-5-cyano-1-(2-methoxy-4-methyl-phenyl)sulfonyl-3-(2-methoxy-3-pyridyl)-2-oxo-indolin-3-yl]-4-[1-(oxetan-3-yl)-4-piperidyl]piperazine-1-carboxamide] | –
++ (25-75) | 10 to 100 nM | COc1ncccc1[C@]1(NC(=O)N2CCN(C3CCN(C4COC4)CC3)CC2)C(=O)N(S(=O)(=O)c2ccc(C#N)cc2F)c2ccc(C#N)cc21 [Example 47, N-[(3S)-5-cyano-1-(4-cyano-2-fluoro-phenyl)sulfonyl-3-(2-methoxy-3-pyridyl)-2-oxo-indolin-3-yl]-4-[1-(oxetan-3-yl)-4-piperidyl]piperazine-1-carboxamide] | –
+++ (>75) | 1 to 10 nM | COc1ccccc1S(=O)(=O)N1C(=O)[C@@](NC(=O)N2CCC(C3CCN(C4COC4)CC3)CC2)(c2cccnc2OC)c2cc(C#N)ccc21 [Example 49, (S)—N-(5-cyano-1-((2-methoxyphenyl)sulfonyl)-3-(2-methoxypyridin-3-yl)-2-oxoindolin-3-yl)-1′-(oxetan-3-yl)-[4,4′-bipiperidine]-1-carboxamide] | –
++ (25-75) | 10 to 100 nM | COc1ncccc1[C@]1(NC(=O)N2CCC(C3CCN(C4COC4)CC3)CC2)C(=O)N(S(=O)(=O)c2ccccc2)c2ccc(C#N)cc21 [Example 50, (S)—N-(5-cyano-3-(2-methoxypyridin-3-yl)-2-oxo-1-(phenylsulfonyl)indolin-3-yl)-1′-(oxetan-3-yl)-[4,4′-bipiperidine]-1-carboxamide] | –
+++ (>75) | 1 to 10 nM | CCOc1ncccc1[C@]1(NC(=O)N2CCN(C3CCN(C4(C)COC4)CC3)CC2)C(=O)N(S(=O)(=O)c2ccc(OC)cc2OC)c2ccc(C#N)cc21 [Example 51, (S)—N-(5-cyano-1-((2,4-dimethoxyphenyl)sulfonyl)-3-(2-ethoxypyridin-3-yl)-2-oxoindolin-3-yl)-4-(1-(3-methyloxetan-3-yl)piperidin-4-yl)piperazine-1-carboxamide] | –
++ (25-75) | < 1 nM | COc1ccc(S(=O)(=O)N2C(=O)[C@@](NC(=O)N3CCN(C4CCN(C5COC5)CC4)CC3)(c3cc(OC)ccc3OC)c3cc(C#N)ccc32)c(OC)c1 [Example 54, (S)—N-(5-cyano-3-(2,5-dimethoxyphenyl)-1-((2,4-dimethoxyphenyl)sulfonyl)-2-oxoindolin-3-yl)-4-(1-(oxetan-3-yl)piperidin-4-yl)piperazine-1-carboxamide] | –
+ (10-<25) | < 1 nM | COc1ccc(S(=O)(=O)N2C(=O)[C@@](NC(=O)N3CCC(C4CCN(C5COC5)CC4)CC3)(c3cc(OC)ccc3OC)c3cc(C#N)ccc32)c(OC)c1 [Example 55, (S)—N-(5-cyano-3-(2,5-dimethoxyphenyl)-1-((2,4-dimethoxyphenyl)sulfonyl)-2-oxoindolin-3-yl)-1′-(oxetan-3-yl)-[4,4′-bipiperidine]-1-carboxamide] | –

SMILES | Ki(h-V1a)/Ki(h-V1b) [1] | Ki [2] | Ki [3]
COc1ccc(S(=O)(=O)N2C(=O)[C@@](NC(=O)N3CCN(C4CCN(C5(C)COC5)CC4)CC3)(c3cccnc3OC)c3cc(C#N)ccc32)c(OC)c1.O=C(O)C(F)(F)F.O=C(O)C(F)(F)F [Example 52, (S)—N-(5-cyano-1-((2,4-dimethoxyphenyl)sulfonyl)-3-(2-methoxypyridin-3-yl)-2-oxoindolin-3-yl)-4-(1-(3-methyloxetan-3-yl)piperidin-4-yl)piperazine-1-carboxamide, 2 trifluoroacetic acid] | +++ (>75) | – | 1 to 10 nM
COc1ccc(S(=O)(=O)N2C(=O)[C@@](NC(=O)N3CCN(C4CCN(C5COC5C)CC4)CC3)(c3cccnc3OC)c3cc(C#N)ccc32)c(OC)c1.O=C(O)C(F)(F)F.O=C(O)C(F)(F)F (stereo partly drawn) [Example 53, N—((S)-5-cyano-1-((2,4-dimethoxyphenyl)sulfonyl)-3-(2-methoxypyridin-3-yl)-2-oxoindolin-3-yl)-4-(1-(2-methyloxetan-3-yl)piperidin-4-yl)piperazine-1-carboxamide, 2 trifluoroacetic acid] | ++ (25-75) | – | 1 to 10 nM
